Data on 4 molecules can be found in patent US20100029668A1, “NOVEL PYRIDAZINE DERIVATIVES” (SYNGENTA CROP PROTECTION, INC., priority 2006, published 2010).

For one series, the system named is Alternaria solani. In words: Alternaria solani/Tomato/Preventive (action against Alternaria on tomato). The class given is in vivo. The note with it: 96 h, preventive spray, tomato plants cv. Roter Gnom, assessed 4 days after inoculation, read-out: inhibit fungal infestation. As for the experimental part: Alternaria solani/Tomato/Preventive (Action Against Alternaria on Tomato) 4 weeks old tomato plants cv. Roter Gnom are treated with the formulated test compound in a spray chamber. Two days after application tomato plants are inoculated by spraying a spore suspension on the test plants. After an incubation period of 4 days at 22° C./18° C. and 95% r. h. in a greenhouse the disease incidence is assessed.

Another series has as its system Botrvtis cinerea. Kind of series: Botrvtis cinerea/Tomato/Preventive (action against Botrytis on tomato). The class given is in vivo. Particulars: Solanum lycopersicum, 72 h, preventive spray, tomato plants cv. Roter Gnom, assessed 3 days after inoculation, read-out: inhibit fungal infestation. As for the experimental part: Botrvtis cinerea/Tomato/Preventive (Action Against Botrytis on Tomato) 4 weeks old tomato plants cv. Roter Gnom are treated with the formulated test compound in a spray chamber. Two days after application tomato plants are inoculated by spraying a spore suspension on the test plants. After an incubation period of 3 days at 20° C. and 95% r. h. in a greenhouse the disease incidence is assessed.

For series [1], the system named is Pyrenophora teres (Helminthosporium teres). Kind of series: Pyrenophora teres (Helminthosporium teres)/Barley/Preventive (action against net blotch on barley). The class given is in vivo. Particulars: 96 h, preventive spray, barley plants cv. Regina, assessed 4 days after inoculation, read-out: inhibit fungal infestation. As for the experimental part:
Pyrenophora teres (Helminthosporium teres)/Barley/Preventive (Action Against Net Blotch on Barley) 1-week-old barley plants cv. Regina are treated with the formulated test compound in a spray chamber. Two days after application barley plants are inoculated by spraying a spore suspension (2.6×10^4 conidia/ml) on the test plants. After an incubation period of 4 days at 20° C. and 95% r. h. the disease incidence is assessed.

Another series deals with Uncinula necator. In words: Uncinula necator/Grape/Preventive (action against powdery mildew on grape). In kind it is in vivo. The note with it: Erysiphe necator, 168 h, preventive spray, grape seedlings cv. Gutedel, assessed 7 days after inoculation, read-out: inhibit fungal infestation. As for the experimental part:
Uncinula necator/Grape/Preventive (Action Against Powdery Mildew on Grape) 5 weeks old grape seedlings cv. Gutedel are treated with the formulated test compound in a spray chamber. One day after application grape plants are inoculated by shaking plants infected with grape powdery mildew above the test plants. After an incubation period of 7 days at 24° C./22° C. and 70% r. h. under a light regime of 14/10 h (light/dark) the disease incidence is assessed.

For series [2], the system named is Maqnaporthe grisea (Pyricularia oryzae). Kind of series: whole plant or invertebrate. The class given is in vivo. Particulars: 144 h, read-out: inhibit fungal infestation.
The next series deals with Puccinia recondita. Kind of series: Puccinia recondita/Wheat/Preventive (action against brown rust on wheat). The class given is in vivo. Particulars: 264 h, preventive spray, wheat plants cv. Arina, assessed 11 days after inoculation, read-out: inhibit fungal infestation. As for the experimental part: Puccinia recondita /Wheat/Preventive (Action Against Brown Rust on Wheat) 1 week old wheat plants cv. Arina are treated with the formulated test compound in a spray chamber. One day after application wheat plants are inoculated by spraying a spore suspension ([…] uredospores/ml) on the test plants. After an incubation period of 1 day at 20° C. and 95% r. h. plants are kept for 10 days 20° C./18° C. (day/night) and 60% r.h. in a greenhouse. The disease incidence is assessed 11 days after inoculation.

Some results are limits rather than exact numbers.

`CSc1ccc(-c2c(C)nnc(Cl)c2-c2ncc(Cl)cc2Cl)nc1` [I.u.008, 3-chloro-4-(3,5-dichloro-pyridin-2-yl)-6-methyl-5-(5-methylsulfanyl-pyridin-2-yl)-pyridazine] displayed a melting point of 163 °C. The inhibition at 200 ppm with Alternaria solani was not below 80%. Also, the inhibition at 200 ppm with Botrvtis cinerea was not below 80%. Moreover, the inhibition at 200 ppm in series [1] was not below 80%. For the same molecule, in the series with Uncinula necator, the inhibition at 200 ppm was not below 80%.

On to `CSc1ccc(-c2c(C)n[nH]c(=O)c2-c2ncc(Cl)cc2Cl)nc1` [I.u.006, 4-(3,5-dichloro-pyridin-2-yl)-6-methyl-5-(5-methylsulfanyl-pyridin-2-yl)-2H-pyridazin-3-one], for which the melting point was 229 °C.

Turning to `CSc1ccc(-c2c(C)nnc(C)c2-c2ncc(Cl)cc2Cl)nc1` [I.u.010, 4-(3,5-dichloro-pyridin-2-yl)-3,6-dimethyl-5-(5-methylsulfanyl-pyridin-2-yl)-pyridazine], the inhibition at 200 ppm in series [2] and in series [1] was not below 80% in each case.

`COc1nnc(C)c(-c2ccc(SC)cn2)c1-c1ncc(Cl)cc1Cl` [I.u.009, 4-(3,5-dichloro-pyridin-2-yl)-3-methoxy-6-methyl-5-(5-methylsulfanyl-pyridin-2-yl)-pyridazine] returned a melting point of 170 to 171 °C. Besides, the inhibition at 200 ppm in the series with Botrvtis cinerea was not below 80%. The inhibition at 200 ppm with Puccinia recondita was not below 80%.
